Source: PubChem BioAssay (NCI)
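Test compounds were applied to cells in 96-well plates for 48 hours at 5 doses. Abbreviation: GI50, concentration required for 50% inhibition of growth. The concentration for full growth arrest is given as TGI.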

Experiments:
Assay in all cases: DTP human tumour cell line panel, 48 h
[1] = tested on: A498 renal
[2] = tested on: IGROV1 ovarian
[3] = tested on: NCI-H23 lung
[4] = tested on: OVCAR-3 ovarian
[5] = tested on: SK-MEL-2 melanoma
[6] = tested on: UACC-257 melanoma
[7] = tested on: UACC-62 melanoma
[8] = tested on: HT29 colon
[9] = tested on: M14 melanoma
[10] = tested on: NCI-H460 lung

SMILES | GI50 [1] [µM] | TGI [1] [µM] | GI50 [2] [µM] | TGI [2] [µM] | GI50 [3] [µM] | TGI [3] [µM] | GI50 [4] [µM] | TGI [4] [µM] | GI50 [5] [µM] | TGI [5] [µM] | GI50 [6] [µM] | TGI [6] [µM] | GI50 [7] [µM] | TGI [7] [µM] | GI50 [8] [µM] | TGI [8] [µM] | GI50 [9] [µM] | TGI [9] [µM] | GI50 [10] [µM] | TGI [10] [µM]
Cc1cn2c(/C=N/N/C(N)=N\N)c(-c3ccc(Cl)c([N+](=O)[O-])c3)nc2s1 | 7.58 | 21.5 | 3.55 | 37.8 | 4.18 | 20 | 0.865 | 1.75 | 7.63 | 23.4 | 1.41 | 4.87 | 0.883 | 1.67 | – | – | – | – | – | –
COc1cnc2c(c1)C(=O)c1c-2n(CCCN2CCCC2)c(=O)c2cc(Cl)ccc12 | 0.384 | 6.01 | 2.47 | 12.5 | 0.857 | 9.16 | – | – | 7.16 | 22.6 | 7.85 | 21.6 | – | – | 0.161 | 7.94 | 0.872 | 11.8 | 0.0217 | 5.51
O=C1C(=O)N(C2C3CC4CC(C3)CC2C4)C(=O)C(=O)C1c1nc2ccccc2o1 (stereo not given) | – | – | – | > 100 | – | > 100 | – | 54 | – | > 100 | – | > 100 | – | > 100 | – | 49.9 | – | > 100 | – | > 100
O=C(O)c1c[nH]cc1C(=O)O | – | > 100 | – | > 100 | – | > 100 | – | > 100 | – | – | – | > 100 | – | > 100 | – | > 100 | – | > 100 | – | > 100
CN(C)c1ccc(C(N)=O)cn1 | – | – | – | > 100 | – | > 100 | – | > 100 | – | > 100 | – | > 100 | – | > 100 | – | > 100 | – | – | – | > 100
N#Cc1ccccc1NC(=O)c1ccccc1 | – | > 100 | – | > 100 | – | > 100 | – | > 100 | – | > 100 | – | > 100 | – | > 100 | – | > 100 | – | – | – | > 100
COc1ccc2c(c1)nc(N)c1c3cccnc3cn21 | 0.0339 | 3.04 | 0.106 | 37.1 | 0.345 | 50 | – | – | 0.843 | 24.2 | 0.064 | 26.7 | 0.0541 | 22.1 | 0.0351 | 1.88 | 0.039 | 27.9 | 0.0923 | 1.77
C=C(C)[C@@H]1CC[C@@]2(C)[C@H]1[C@H]1CCC3[C@@]4(C)CC[C@H](O)C(C)(C)[C@@H]4CC[C@@]3(C)[C@]1(C)C[C@@H]2O (stereo not given in full) | – | > 100 | – | > 100 | – | > 100 | – | > 100 | – | – | – | > 100 | – | – | – | > 100 | – | > 100 | – | > 100
COc1ccc(-c2ccc(/C=N/n3c(COc4ccc(Cl)cc4)n[nH]c3=S)o2)c([N+](=O)[O-])c1 | – | – | – | – | 13.8 | 33.7 | – | – | 41.9 | > 100 | 15.9 | 51.4 | 17.8 | 51.7 | 21.1 | 50.9 | 32.7 | > 100 | 13 | 32.8
C/C1=C\CC[C@@](C)(O)[C@@H]2CC3[C@@H](OC(=O)C34CC4)[C@@H](O2)[C@H](C)CCC1 (stereo not given in full) | – | – | 6.48 | 24.1 | – | – | 20.1 | 39.6 | 16.2 | 34.4 | 20.4 | 44.1 | 21.3 | 56.4 | 28.9 | > 100 | – | – | 12 | 24.7
CCOC(=O)N1CCN(S(=O)(=O)c2oc(-c3ccc(Cl)cc3)nc2C#N)CC1 | 17.2 | > 100 | 1.75 | 3.47 | 3.93 | 15.1 | 1.79 | 3.38 | 3.96 | 13.8 | 2.37 | 7.71 | 3.07 | 12.7 | – | – | 1.59 | 3.67 | 15 | 46
CCOc1ccc(NC(=O)CC2SC(N)=NC2=O)cc1 (stereo not given) | – | – | – | > 100 | – | > 100 | – | > 100 | – | > 100 | – | > 100 | – | > 100 | – | > 100 | – | > 100 | – | > 100
N#CC1C(N)=NNC12Nc1ccccc1N2 (stereo not given) | – | – | 11.9 | 71.3 | – | – | 3.16 | 19.4 | 15.1 | 77.5 | – | – | 3.28 | 33.8 | – | – | 65.9 | > 100 | 13.6 | 38.1
CCOC(=O)/C(C#N)=C1\N[C@H](C(=O)OCC)CO1 | – | – | – | > 100 | – | > 100 | – | > 100 | – | 62.6 | – | > 100 | – | > 100 | – | > 100 | – | > 100 | – | > 100
COc1ccc2cc3n(c2c1)CCc1cc(OC)c(OC)cc1-3 | – | > 100 | – | > 100 | – | > 100 | – | – | – | > 100 | – | > 100 | – | > 100 | – | > 100 | – | – | – | > 100
CCOC(=O)c1c(C)n(Cc2ccc(Cl)cc2Cl)c2c1cc1oc(=O)c(=O)n3c(Cc4ccccc4)nc2c13 | – | – | 2.11 | 15.2 | 2.8 | 7.3 | 1.91 | 4.44 | 11.8 | 32.6 | 17.3 | 36.3 | 14.5 | 28.2 | 4.65 | 17.4 | 13 | 36.7 | 2.68 | 7.06
CC1=CC(=O)C(C(C)=Nc2ccccc2Cl)C(=O)O1 (stereo not given) | > 100 | > 100 | 76.2 | > 100 | > 100 | > 100 | > 100 | > 100 | – | – | > 100 | > 100 | > 100 | > 100 | > 100 | > 100 | > 100 | > 100 | > 100 | > 100
Cc1cccc(C(C)(C)C)c1NC(=O)C(=O)C(c1cnc2ccccc2n1)[N+](=O)[O-] (stereo not given) | – | > 100 | – | > 100 | – | > 100 | – | – | – | > 100 | – | > 100 | – | > 100 | – | > 100 | – | > 100 | – | > 100
